Earlier results, collected in US8221990B2, “Screening GPR12 receptor for substances having Nesfatin-1-like action, or which regulate Nesfatin-1 action” (Teijin Pharma Limited, priority 2007, dated 2012).

Biological target: T1, GPR12 (Homo sapiens, UniProt P47775)
T1 sequence (P47775 1-334): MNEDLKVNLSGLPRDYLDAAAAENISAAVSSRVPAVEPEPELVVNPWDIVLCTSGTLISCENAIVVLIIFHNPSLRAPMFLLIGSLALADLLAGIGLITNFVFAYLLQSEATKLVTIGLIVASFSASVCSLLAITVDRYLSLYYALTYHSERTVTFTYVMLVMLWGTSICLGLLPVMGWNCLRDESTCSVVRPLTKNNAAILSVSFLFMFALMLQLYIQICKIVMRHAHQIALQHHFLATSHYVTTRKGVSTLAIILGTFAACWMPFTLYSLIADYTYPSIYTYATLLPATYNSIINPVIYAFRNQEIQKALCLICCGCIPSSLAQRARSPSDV
Settings: cells in which a GPR12 gene is introduced and expressed; cited from earlier work

SMILES	cytoplasmic calcium ion concentration
CCCCCCCCCCCCC/C=C/[C@@H](O)[C@@H](N)COP(=O)([O-])OCC[N+](C)(C)C [SPC, sphingosylphosphorylcholine]	increase in cytoplasmic calcium ion concentration occurs
CCCCCCCCCCCCC/C=C/[C@@H](O)[C@@H](N)COP(=O)(O)O [S1P, sphingosine 1-phosphate]	increase in cytoplasmic calcium ion concentration occurs
